From US9770026B2, “Substituted pyrimidine compound and uses thereof” (Shenyang Sinochem Agrochemicals R&D Co., Ltd., priority 2012, dated 2017)

How the values were obtained:
wheat powdery mildew = experiment: protectant activity in vivo against wheat powdery mildew
cucumber downy mildew = experiment: protectant activity in vivo against cucumber downy mildew
armyworm = experiment: bioactivity test against armyworm, airbrush spray; type: in vivo
carmine spider mite = experiment: bioactivity test against carmine spider mite, airbrush spray; type: in vivo
Summary of the method: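 Broadbean seedlings infested with adult mites were sprayed with compound (acetone/methanol stock diluted in 0.1% Tween 80 water) by airbrush at 0.7 kg/cm^2, 0.5 ml. Three replicates were run. Mortality was scored after 72 hrs.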

Diamond back moth = experiment: insecticidal activity against diamond back moth, airbrush spray; type: in vivo
Protocol: Compounds were dissolved in mixed solvent (acetone:methanol=1:1), and diluted to required concentration with water containing 0.1% of tween 80.
Diamond back moth, armyworm, peach aphid and carmine spider mite were used as targets and the method of spraying by airbrush was used for determination of insecticidal biassays.
The method of spraying by airbrush: The cabbage leaves were made into plates of 2 cm diameter by use of punch. A test solution (0.5 ml) was sprayed by airbrush at the pressure of 0.7 kg/cm^2 to both sides of every plate. 10 Second instar larvae were put into the petri-dishes after the leaf disc air-dried and 3 replicates were set for each treatment. Then the insects were maintained in observation room (25° C., 60˜70% R.H.). Scores were conducted and mortalities were calculated after 72 hrs.

[1] = tested on: Green peach aphids (Myzus Persicae Sulzer); experiment: bioactivity test against green peach aphid, airbrush foliar spray; type: in vivo
Summary of the method: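 Death rate was scored at 48 hrs, held at 25±1 C and 60±5% RH, following airbrush foliar spray (0.5 mL, 10 psi) onto cabbage leaf discs bearing about 15-30 aphids. Test solutions: compound dissolved in 1:1 acetone:methanol, brought to concentration with 0.1% tween 80 water.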

corn rust = experiment: protectant activity in vivo against corn rust; conditions: Zea mays, 168 h
[2] = 100 ppm, mortality after 72 hrs
[3] = 600 ppm, mortality after 72 hrs

## CCc1ncnc(NCCc2ccc(Oc3ccc(C#N)cn3)cc2)c1Cl [Compound I-255]
Wheat powdery mildew; 25 ppm
  protectant activity against wheat powdery mildew in vivo: 100%
Wheat powdery mildew; 100 ppm
  protectant activity against wheat powdery mildew in vivo: 100%
Wheat powdery mildew; 400 ppm
  protectant activity against wheat powdery mildew in vivo: 100%
Cucumber downy mildew; 25 ppm
  protectant activity against cucumber downy mildew in vivo: 100%
Cucumber downy mildew; 50 ppm
  protectant activity against cucumber downy mildew in vivo: 100%
Cucumber downy mildew; 100 ppm
  protectant activity against cucumber downy mildew in vivo: 100%
Cucumber downy mildew; 400 ppm
  protectant activity against cucumber downy mildew in vivo: 100%
armyworm; 10 mg/L
  Insecticidal activity against armyworm (%): 25%
armyworm; 100 mg/L
  Insecticidal activity against armyworm (%): 100%
armyworm; 600 mg/L
  Insecticidal activity against armyworm (%): 100%
armyworm; 100 ppm, mortality after 72 h
  control (test results against armyworm): 100%
armyworm; 600 ppm, mortality after 72 h
  control (test results against armyworm): 100%
Carmine spider mite; 2.5 mg/L
  Insecticidal activity against carmine spider mite (% ): 72%
Carmine spider mite; 5 mg/L
  Insecticidal activity against carmine spider mite (% ): 84%
Carmine spider mite; 10 mg/L, contrastive test
  Insecticidal activity against carmine spider mite (% ): 85%
Carmine spider mite; 100 mg/L, contrastive test
  Insecticidal activity against carmine spider mite (% ): 100%
Carmine spider mite; 600 mg/L, contrastive test
  Insecticidal activity against carmine spider mite (% ): 100%
Carmine spider mite; [2]
  control against carmine spider mite: 100%
Carmine spider mite; [3]
  control against carmine spider mite: 100%
Diamond back moth; 10 mg/L
  Insecticidal activity against diamond back moth (%): 43%
Diamond back moth; 100 mg/L
  Insecticidal activity against diamond back moth (%): 100%
Diamond back moth; 600 mg/L
  Insecticidal activity against diamond back moth (%): 100%
Diamond back moth; [2]
  control (test results against diamond back moth): 100%
Diamond back moth; [3]
  control (test results against diamond back moth): 100%
[1]; 10 ppm, death rate after 48 hrs
  control (test results against green peach aphid): 100%
[1]; 100 ppm, death rate after 48 hrs
  control (test results against green peach aphid): 100%
[1]; 600 ppm, death rate after 48 hrs
  control (test results against green peach aphid): 100%

## FC(F)c1ncnc(NCCc2ccc(Oc3ccc(Cl)cc3)cc2)c1Cl [II-8915]
Corn rust; read-out: control effect against corn rust (%), 0.4 mg/L, protectant activity
  pest or weed control at 0.4 µg/mL: 30%
Corn rust; read-out: control effect against corn rust (%), 1.6 mg/L, protectant activity
  pest or weed control at 1.6 µg/mL: 80%
Corn rust; read-out: control effect against corn rust (%), 6.25 mg/L, protectant activity
  pest or weed control at 6.25 µg/mL: 100%
Corn rust; read-out: control effect against corn rust (%), 25 mg/L, protectant activity
  pest or weed control at 25 µg/mL: 100%
Corn rust; read-out: control effect against corn rust (%), 100 mg/L, protectant activity
  pest or weed control at 100 µg/mL: 100%
Corn rust; read-out: control effect against corn rust (%), 400 mg/L, protectant activity
  pest or weed control at 400 µg/mL: 100%
Corn rust; read-out: protectant activity against corn rust in vivo, 6.25 ppm
  pest or weed control at 6.25 ppm: 100%
Corn rust; read-out: protectant activity against corn rust in vivo, 25 ppm
  pest or weed control at 25 ppm: 100%
Corn rust; read-out: protectant activity against corn rust in vivo, 100 ppm
  pest or weed control at 100 ppm: 100%
Corn rust; read-out: protectant activity against corn rust in vivo, 400 ppm
  pest or weed control at 400 ppm: 100%
Cucumber downy mildew; Cucumis sativus, 168 h, read-out: control effect against cucumber downy mildew (%), 3.125 mg/L, protectant activity
  pest or weed control at 3.125 µg/mL: 20%
Cucumber downy mildew; Cucumis sativus, 168 h, read-out: control effect against cucumber downy mildew (%), 6.25 mg/L, protectant activity
  pest or weed control at 6.25 µg/mL: 90%
Cucumber downy mildew; Cucumis sativus, 168 h, read-out: control effect against cucumber downy mildew (%), 12.5 mg/L, protectant activity
  pest or weed control at 12.5 µg/mL: 95%
Cucumber downy mildew; Cucumis sativus, 168 h, read-out: control effect against cucumber downy mildew (%), 25 mg/L, protectant activity
  pest or weed control at 25 µg/mL: 99%
Cucumber downy mildew; Cucumis sativus, 168 h, read-out: control effect against cucumber downy mildew (%), 50 mg/L, protectant activity
  pest or weed control at 50 µg/mL: 100%
Cucumber downy mildew; Cucumis sativus, 168 h, read-out: control effect against cucumber downy mildew (%), 100 mg/L, protectant activity
  pest or weed control at 100 µg/mL: 100%
Cucumber downy mildew; Cucumis sativus, 168 h, read-out: control effect against cucumber downy mildew (%), 400 mg/L, protectant activity
  pest or weed control at 400 µg/mL: 100%
Cucumber downy mildew; Cucumis sativus, 168 h, read-out: protectant activity against cucumber downy mildew in vivo, 6.25 ppm
  pest or weed control at 6.25 ppm: 80 to 99%
Cucumber downy mildew; Cucumis sativus, 168 h, read-out: protectant activity against cucumber downy mildew in vivo, 12.5 ppm
  pest or weed control at 12.5 ppm: 80 to 99%
Cucumber downy mildew; Cucumis sativus, 168 h, read-out: protectant activity against cucumber downy mildew in vivo, 25 ppm
  pest or weed control at 25 ppm: 80 to 99%
Cucumber downy mildew; Cucumis sativus, 168 h, read-out: protectant activity against cucumber downy mildew in vivo, 50 ppm
  pest or weed control at 50 ppm: 80 to 99%
Cucumber downy mildew; Cucumis sativus, 168 h, read-out: protectant activity against cucumber downy mildew in vivo, 100 ppm
  pest or weed control at 100 ppm: 100%
Cucumber downy mildew; Cucumis sativus, 168 h, read-out: protectant activity against cucumber downy mildew in vivo, 400 ppm
  pest or weed control at 400 ppm: 100%
armyworm; 72 h, 10 mg/L, read-out: Insecticidal activity against armyworm (%)
  pest or weed control at 10 µg/mL: 44%
armyworm; 72 h, 100 mg/L, read-out: Insecticidal activity against armyworm (%)
  pest or weed control at 100 µg/mL: 95%
armyworm; 72 h, 600 mg/L, read-out: Insecticidal activity against armyworm (%)
  pest or weed control at 600 µg/mL: 100%
armyworm; 72 h, 100 ppm, mortality after 72 h
  pest or weed control at 100 ppm: 80 to 99%
armyworm; 72 h, 600 ppm, mortality after 72 h
  pest or weed control at 600 ppm: 100%
Carmine spider mite; Tetranychus cinnabarinus, 72 h, 100 ppm, mortality after 72 hrs
  pest or weed control at 100 ppm: 100%
Carmine spider mite; Tetranychus cinnabarinus, 72 h, 600 ppm, mortality after 72 hrs
  pest or weed control at 600 ppm: 100%
Diamond back moth; 72 h, 600 ppm, mortality after 72 hrs, read-out: control (test results against diamond back moth)
  pest or weed control at 600 ppm: 100%
[1]; Myzus persicae, foliar, 48 h, 1.25 mg/L, contrastive test, read-out: Insecticidal activity against peach aphid (%)
  pest or weed control at 1.25 µg/mL: 100%
[1]; Myzus persicae, foliar, 48 h, 2.5 mg/L, contrastive test, read-out: Insecticidal activity against peach aphid (%)
  pest or weed control at 2.5 µg/mL: 100%
[1]; Myzus persicae, foliar, 48 h, 5 mg/L, contrastive test, read-out: Insecticidal activity against peach aphid (%)
  pest or weed control at 5 µg/mL: 100%
[1]; Myzus persicae, foliar, 48 h, 10 mg/L, contrastive test, read-out: Insecticidal activity against peach aphid (%)
  pest or weed control at 10 µg/mL: 100%
[1]; Myzus persicae, foliar, 48 h, 100 mg/L, contrastive test, read-out: Insecticidal activity against peach aphid (%)
  pest or weed control at 100 µg/mL: 100%
[1]; Myzus persicae, foliar, 48 h, 600 mg/L, contrastive test, read-out: Insecticidal activity against peach aphid (%)
  pest or weed control at 600 µg/mL: 100%
[1]; Myzus persicae, foliar, 48 h, 2.5 ppm, death rate after 48 hrs
  pest or weed control at 2.5 ppm: 100%
[1]; Myzus persicae, foliar, 48 h, 5 ppm, death rate after 48 hrs
  pest or weed control at 5 ppm: 100%
[1]; Myzus persicae, foliar, 48 h, 10 ppm, death rate after 48 hrs
  pest or weed control at 10 ppm: 100%
[1]; Myzus persicae, foliar, 48 h, 100 ppm, death rate after 48 hrs
  pest or weed control at 100 ppm: 100%
[1]; Myzus persicae, foliar, 48 h, 600 ppm, death rate after 48 hrs
  pest or weed control at 600 ppm: 100%
